From patent US7563791B2, “Pyrrolotriazine derivatives useful for treating hyper-proliferative disorders and diseases associated with angiogenesis” (Bayer Pharmaceuticals Corporation, priority 2004, dated 2009)

How the values were obtained:
Type in all cases: cell-based
[1] = test system: histone 3 phosphorylation in colon carcinoma (HCT116); assay: p-Histone3 assay: inhibition of histone 3 phosphorylation in HCT116; settings: Homo sapiens, HCT-116, 24 h, HCT116, 24 hours compound treatment
Protocol: Compounds were assayed for the inhibition of histone 3 phosphorylation in colon carcinoma (HCT116). Briefly, 20,000 cells/well were seeded in a 96-well black-walled, poly-d-lysine plates in RPMI+10% FBS and incubated at 37° C. in 5% CO2 overnight. The following day, the cells were treated with compounds for 24 hours at 37° C. Following compound treatment; plates were centrifuged at 1000 rpm for 2 minutes and washed twice with 100 μl of cold sterile TBS. Cells were then fixed with cold 3.7% formaldehyde in TBS (4° C. for 1 hour) and then permeabolized with 0.1% Triton-X-100 in TBS (room temperature for 30 minutes). Plates were then washed with of 0.25% BSA-TBS and blocked with BSA solution for 1 hour at room temperature while shaking. The supernatant was removed and replaced with diluted primary antibody (anti-phospho-histone 3, serine 10, Cell Signaling) at 1:250 in 0.25% BSA-TBS and incubated overnight at 4° C. The plates were washed and treated with diluted secondary antibody (anti-rabbit Eu-labeled) at 1:10000 in 0.25% BSA-TBS (room temperature for 1 hour). The antibody solution was removed from each well and washed eight times. The wash buffer was replaced with 50 μl pre-warmed enhancement solution and mixed on the orbital shaker for 10 minutes. Fluorescence was detected with a Victor V Fluorescence Detector. The data are expressed as percent inhibition: % inhibition=100−((Signal with inhibitor-background)/(Signal without inhibitor-background))×100.

[2] = test system: VEGF stimulated Phospho-ERK in HUVEC; assay: Growth factor stimulated p-ERK assay in HUVECs (VEGF stimulation, ERK1/2 Bioplex); settings: Homo sapiens, @ 100 nM, compound 2 hrs, then 50 ng/ml VEGF 10 min
Summary of the method: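 HUVECs in serum-free RPMI 1640/0.1% BSA pretreated with compound 2 hrs, then stimulated 10 min with 50 ng/ml VEGF (or bFGF). Lysate phospho-ERK1/2 quantified by bead-based Bio-Plex immunoassay on Luminex.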

HCT116 cells = assay: Tumor cell proliferation (Alamar Blue), HCT116; settings: Homo sapiens, HCT-116, 72 h
Summary of the method: (§1)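 Cells seeded at 3.0×10^3/well in RPMI with 10% FBS for 16 h, then treated with compound (added medium held 40 μM to 18 nM compound, 0.4% DMSO) for 72 h at 37 °C, 5% CO2. Viability by Alamar Blue, 3 h, fluorescence 544/590 nm. IC50 by linear regression of log concentration versus percent inhibition.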

MDA-MB-231 cells = assay: Tumor cell proliferation (Alamar Blue), MDA-MB-231; settings: Homo sapiens, MDA-MB-231, 72 h
Summary of the method: as §1

Structure (SMILES)	IC50 [1] [µM]	IC50 ([1]; bound given in μM) [µM]	also measured
CNC(=O)c1cn2ncnc(N)c2c1-c1ccc(NC(=O)Nc2cc(C(F)(F)F)ccc2F)cc1 [Example 59, 4-amino-5-{4-[({[2-fluoro-5-(trifluoromethyl)phenyl]amino}carbonyl)amino]phenyl}-N-methylpyrrolo[2,1-f][1,2,4]triazine-6-carboxamide]	> 0.5	< 1	inhibition at 0.1 µM [2]: > 50%; IC50 (HCT116 cells): > 0.5 µM; IC50 (HCT116 cells; bounds given in μM): < 1.5 µM; IC50 (MDA-MB-231 cells): > 0.5 µM; IC50 (MDA-MB-231 cells; bounds given in μM): < 1.5 µM
COCCNC(=O)c1cn2ncnc(N)c2c1-c1ccc(NC(=O)Nc2cc(C(F)(F)F)ccc2F)cc1 [Example 167, 4-amino-5-{4-[({[2-fluoro-5-(trifluoromethyl)phenyl]amino}carbonyl)amino]phenyl}-N-(2-methoxyethyl)pyrrolo[2,1-f][1,2,4]triazine-6-carboxamide]	> 0.5	< 1	
CCOC(=O)c1cn2ncnc(N)c2c1-c1ccc(NC(=O)Nc2cccc(Oc3ccccc3)c2)cc1 [Example 171, ethyl 4-amino-5-[4-({[(3-phenoxyphenyl)amino]carbonyl}amino)phenyl]pyrrolo[2,1-f][1,2,4]triazine-6-carboxylate]	< 0.5		
CCNC(=O)c1cn2ncnc(N)c2c1-c1ccc(NC(=O)Nc2cccc(C(F)(F)F)n2)cc1 [Example 176, 4-amino-N-ethyl-5-{4-[({[6-(trifluoromethyl)pyridin-2-yl]amino}carbonyl)amino]phenyl}pyrrolo[2,1-f][1,2,4]triazine-6-carboxamide]	< 0.5		
Nc1ncnn2cc(C(=O)NC3CC3)c(-c3ccc(NC(=O)Nc4cccc(C(F)(F)F)n4)cc3)c12 [Example 177, 4-amino-N-cyclopropyl-5-{4-[({[6-(trifluoromethyl)pyridin-2-yl]amino}carbonyl)amino]phenyl}pyrrolo[2,1-f][1,2,4]triazine-6-carboxamide]	< 0.5		
CSCCCNC(=O)c1cn2ncnc(N)c2c1-c1ccc(NC(=O)Nc2cccc(C(F)(F)F)n2)cc1 [Example 204, 4-amino-N-[3-(methylthio)propyl]-5-{4-[({[6-(trifluoromethyl)pyridin-2-yl]amino}carbonyl)amino]phenyl}pyrrolo[2,1-f][1,2,4]triazine-6-carboxamide]	> 0.5	< 1	
